Target: T1, human Keap1 Kelch (Homo sapiens, UniProt Q14145)
T1 construct: human Keap1 Kelch domain (residue 321-609, UniProt Q14145); made in house; host or cells: Escherichia coli BL21 (DE3) pLysS, pRSET A vector
Assay: Surface plasmon resonance (SPR), immobilized Keap1 Kelch domain
Type: binding
Conditions: 25 °C, Rmax constrained to 15 RU (theoretical max)
From the text: 768 fragments from the commercial available (Enamine) DSI-poised library were screened against the human Keap1 Kelch domain using X-ray crystallography. After data collection and processing (example 3), several crystal structures with high-resolution (1.0-2.1 Å) were identified showing fragments bound to the Keap1 binding pocket. […] To confirm XCF #0252 as a hit and determine its affinity to human Keap1 Kelch, this fragment was resynthesized (Scheme 1) and tested by surface plasmon resonance (SPR). In SPR, a dose-dependent activity was observed and an affinity of Kd=0.6 mM was measured (FIG. 2B).
SPR measurements were performed at 25° C. using a Pioneer FE FE instrument (Sartorius). The Keap1 Kelch domain was covalently immobilized on the biosensor chip surface by amine coupling to a level of 2150 RU, using a 10 mM NaOAc pH 5 immobilization buffer. The 1×HBSTET buffer supplemented with 4% DMSO was used as running buffer for the experiments. Microcalibration was performed for all SPR experiments to adjust for DMSO bulk effects (low limit of 3% and a high limit of 4%). The compound was injected in a concentration series of twofold serial dilutions ([…]-1000 μM) using standard injections at a 30 μL/min flow rate. The data were analyzed using Qdat Data Analysis Tool version 2.6.3.0 (Sartorius). […]

T1 sequence (Q14145 321-609): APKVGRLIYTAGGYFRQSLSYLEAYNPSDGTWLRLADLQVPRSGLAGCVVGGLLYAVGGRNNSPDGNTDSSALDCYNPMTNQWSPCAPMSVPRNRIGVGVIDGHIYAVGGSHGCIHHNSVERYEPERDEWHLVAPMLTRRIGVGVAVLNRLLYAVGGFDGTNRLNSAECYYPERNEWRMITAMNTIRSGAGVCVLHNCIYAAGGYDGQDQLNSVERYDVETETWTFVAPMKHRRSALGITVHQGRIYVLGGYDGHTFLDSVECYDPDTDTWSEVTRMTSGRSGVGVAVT

Question: With `O=C(COc1ccccc1)NC1CCCCC1` [XCF #0252, N-Cyclohexyl-2-phenoxyacetamide] as the compound, how does the Kd read?
Answer: 600 µM
